According to PMC7316778 (Nature Communications, 2020):
Several values for one entry are separate records, joined by “and”; a condition that tells them apart may be missing. Equal values may be shown once.

Columns and labels:
FES^WT = molecular target: T1, FES^WT (Homo sapiens, UniProt P07332); experiment: In vitro TR-FRET kinase assay; type: biochemical; conditions: for Residual activity (%): FES WT, mean, n=3
T1 construct: human FES cDNA encoding residues 448–822 or human FER cDNA encoding residues 448–820 was amplified by PCR; made in house; host or cells: E. coli BL21(DE3), co-expressing YopH phosphatase
T1 sequence (P07332 448-822): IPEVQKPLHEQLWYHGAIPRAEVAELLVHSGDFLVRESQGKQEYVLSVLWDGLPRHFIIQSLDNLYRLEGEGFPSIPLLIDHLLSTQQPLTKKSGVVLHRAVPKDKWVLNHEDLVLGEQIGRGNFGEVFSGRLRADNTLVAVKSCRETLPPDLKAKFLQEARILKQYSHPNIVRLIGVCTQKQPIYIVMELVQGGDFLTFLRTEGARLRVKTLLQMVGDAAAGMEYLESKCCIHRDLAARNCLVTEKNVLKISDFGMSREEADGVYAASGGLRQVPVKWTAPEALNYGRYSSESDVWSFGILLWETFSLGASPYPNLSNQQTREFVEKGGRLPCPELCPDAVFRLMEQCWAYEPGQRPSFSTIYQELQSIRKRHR
Protocol: All measurements were performed in triplicate.

FER^WT = FER^WT (Homo sapiens, UniProt P16591); experiment: In vitro TR-FRET kinase assay
Chain of FER^WT (P16591 448-820): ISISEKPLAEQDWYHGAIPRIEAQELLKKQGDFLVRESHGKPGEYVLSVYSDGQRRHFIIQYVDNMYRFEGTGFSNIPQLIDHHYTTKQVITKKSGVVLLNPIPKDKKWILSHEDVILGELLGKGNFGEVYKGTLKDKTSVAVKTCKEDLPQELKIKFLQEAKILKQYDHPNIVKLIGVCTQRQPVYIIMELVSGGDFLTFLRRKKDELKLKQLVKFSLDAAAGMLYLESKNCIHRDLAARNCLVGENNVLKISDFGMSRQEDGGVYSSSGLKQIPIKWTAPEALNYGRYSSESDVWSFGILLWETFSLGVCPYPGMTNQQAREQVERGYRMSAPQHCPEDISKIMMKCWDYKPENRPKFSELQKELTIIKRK

[1] = test system: FES^S700C HL-60 neutrophils; experiment: Phagocytosis assay with GFP-expressing E. coli; type: cell-based, human; conditions: for GFP-positive cells (%): Sup. Fig. 15a; for Mean GFP intensity (RFU): Sup. Fig. 15b
Protocol: HL-60 cells were differentiated to neutrophils as described above. Cells were counted and centrifuged (200g, 5 min), followed by resuspension in growth medium without antibiotics. Cells were incubated with vehicle or inhibitor (from 1000x concentrated stocks in DMSO) for 1 h at 37 °C prior to infection (1×10^6 cells in 900 µL in 12-well plate). Meanwhile, E. coli B834(DE3) constitutively expressing GFP^A206K were grown in LB medium to an OD600 of 0.4–1.0, after which bacteria were centrifuged (2000g, 5 min), washed and resuspended in PBS to appropriate density. Neutrophils were infected by addition of bacteria at multiplicity of infection (MOI) of 30 unless stated otherwise. Cells were then incubated for 1 h at 37 °C unless stated otherwise, after which cells were resuspended and transferred to Eppendorf tubes, washed in FACS buffer (1 mL, 500g, 3 min) and fixed in 1% PFA in PBS (15 min, 4 °C, in the dark). Samples were further processed as described above.
Events (generally 20,000 per condition) were gated by forward and side scatter (cells), side scatter area (singlets) and the percentage of GFP-positive cells and GFP mean fluorescence intensity (MFI) were determined based on background fluorescence for non-infected cells. The GREEN-B channel (525/30 filter) was used to detect GFP.

C=CC(=O)Nc1ccccc1Nc1nc(Nc2ccccc2OC)ncc1Cl [Compound 4]
IC50 (FES^WT; TR-FRET assay, 5 µM ATP, n = 3, read-out: pIC50 FES^WT (converted)): 2000 nM
IC50 (FER^WT): 200 nM

CCC(=O)Nc1ccccc1Nc1nc(Nc2ccccc2OC)ncc1Cl [Supplementary Figure 8e]
Residual activity (%) WT Mean (FER^WT; log[inhibitor] (M) -5): 15.6173%
Residual activity (%) WT Mean (FER^WT; log[inhibitor] (M) -5.52288): 11.558%
Residual activity (%) WT Mean (FER^WT; log[inhibitor] (M) -6): 19.5081%
Residual activity (%) WT Mean (FER^WT; log[inhibitor] (M) -6.52288): 74.3812%
Residual activity (%) WT Mean (FER^WT; log[inhibitor] (M) -7): 96.1324%
Residual activity (%) WT Mean (FER^WT; log[inhibitor] (M) -7.52288): 93.3601%
Residual activity (%) WT Mean (FER^WT; log[inhibitor] (M) -8): 104.761%
Residual activity (%) WT Mean (FER^WT; log[inhibitor] (M) -8.52288): 92.7732%
Residual activity (%) WT Mean (FER^WT; log[inhibitor] (M) -9): 106.725%
Residual activity (%) WT Mean (FER^WT; log[inhibitor] (M) -9.52288): 98.2336%
Residual activity (%) WT Mean (FER^WT; log[inhibitor] (M) -10): 113.972%
Residual activity (%) WT Mean (FER^WT; log[inhibitor] (M) -10.5229): 97.8463%
Residual activity (%) WT Mean (FER^WT; log[inhibitor] (M) -11): 108.607%

C=C1[C@@H](C)[C@H]2[C@H](Cc3ccccc3)NC(=O)[C@]23[C@H](OC(C)=O)/C=C/[C@@](C)(O)C(=O)[C@@H](C)C/C=C/[C@H]3[C@@H]1O [Cytochalasin D]
Phagocytic index ([1]; Figure 7i, replicates): 55.7493 and 57.2763 and 70.3881 and 51.4867 and 48.2922
Phagocytic index ([1]; MOI 0, Sup. Fig. 15d): 8.168 and 11.9502 and 9.328
Phagocytic index ([1]; MOI 5, Sup. Fig. 15d): 77.8958 and 83.9457 and 75.261
Phagocytic index ([1]; MOI 10, Sup. Fig. 15d): 109.345 and 104.624 and 85.7245
Phagocytic index ([1]; MOI 30, Sup. Fig. 15d): 212.699 and 198.296 and 185.432
Phagocytic index ([1]; MOI 50, Sup. Fig. 15d): 255.429 and 327.443 and 225.712
GFP-positive cells (%) ([1]; infection time 0 min): 14.1178% and 22.6106% and 27.9257%
Mean GFP intensity (RFU) ([1]; infection time 0 min): 245.785 RFU and 271.934 RFU and 267.216 RFU
GFP-positive cells (%) ([1]; infection time 15 min): 27.3639% and 36.225% and 38.7869%
Mean GFP intensity (RFU) ([1]; infection time 15 min): 283.565 RFU and 293.305 RFU and 282.675 RFU
Phagocytic index ([1]; infection time 15 min, Sup. Fig. 15c): 77.5947 and 106.25 and 109.641
GFP-positive cells (%) ([1]; infection time 30 min): 33.857% and 41.6734% and 39.0238%
Mean GFP intensity (RFU) ([1]; infection time 30 min): 270.952 RFU and 276.074 RFU and 268.61 RFU
Phagocytic index ([1]; infection time 30 min, Sup. Fig. 15c): 91.7362 and 115.049 and 104.822
GFP-positive cells (%) ([1]; infection time 60 min): 50.1058% and 58.9504% and 42.1365%
Mean GFP intensity (RFU) ([1]; infection time 60 min): 234.066 RFU and 238.429 RFU and 237.207 RFU
Phagocytic index ([1]; infection time 60 min, Sup. Fig. 15c): 117.281 and 140.555 and 99.951

C=CC(=O)Nc1cccc(Nc2nc(Nc3ccccc3OC)ncc2Cl)c1 [Supplementary Figure 1d]
Residual activity (%) (FES^WT; log[inhibitor] (M) = -5): 32.3982%
Residual activity (%) (FES^WT; log[inhibitor] (M) = -5.52288): 40.0335%
Residual activity (%) (FES^WT; log[inhibitor] (M) = -6): 62.9411%
Residual activity (%) (FES^WT; log[inhibitor] (M) = -6.52288): 63.4299%
Residual activity (%) (FES^WT; log[inhibitor] (M) = -7): 90.1255%
Residual activity (%) (FES^WT; log[inhibitor] (M) = -7.52288): 87.1043%
Residual activity (%) (FES^WT; log[inhibitor] (M) = -8): 96.4271%
Residual activity (%) (FES^WT; log[inhibitor] (M) = -8.52288): 92.3122%
Residual activity (%) (FES^WT; log[inhibitor] (M) = -9): 101.396%
Residual activity (%) (FES^WT; log[inhibitor] (M) = -9.52288): 120.198%
Residual activity (%) (FES^WT; log[inhibitor] (M) = -10.5229): 97.4644%
Residual activity (%) (FES^WT; log[inhibitor] (M) = -11): 93.0274%

C=CC(=O)Nc1ccccc1Nc1nc(Nc2ccccc2OC)ncc1Cl [Supplementary Figure 1e]
Residual activity (%) (FES^WT; log[inhibitor] (M) = -5): 4.602%
Residual activity (%) (FES^WT; log[inhibitor] (M) = -5.52288): 7.942%
Residual activity (%) (FES^WT; log[inhibitor] (M) = -6): 20.2502%
Residual activity (%) (FES^WT; log[inhibitor] (M) = -6.52288): 52.3925%
Residual activity (%) (FES^WT; log[inhibitor] (M) = -7): 77.2757%
Residual activity (%) (FES^WT; log[inhibitor] (M) = -7.52288): 90.9565%
Residual activity (%) (FES^WT; log[inhibitor] (M) = -8): 93.9799%
Residual activity (%) (FES^WT; log[inhibitor] (M) = -8.52288): 103.383%
Residual activity (%) (FES^WT; log[inhibitor] (M) = -9): 97.8768%
Residual activity (%) (FES^WT; log[inhibitor] (M) = -9.52288): 97.6076%
Residual activity (%) (FES^WT; log[inhibitor] (M) = -10): 100%
Residual activity (%) (FES^WT; log[inhibitor] (M) = -10.5229): 116.125%

COc1ccccc1Nc1ncc(Cl)c(Nc2ccccc2S(=O)(=O)C(C)C)n1 [Supplementary Figure 1c]
Residual activity (%) (FES^WT; log[inhibitor] (M) = -5): 3.135%
Residual activity (%) (FES^WT; log[inhibitor] (M) = -5.52288): 1.274%
Residual activity (%) (FES^WT; log[inhibitor] (M) = -6): 0.9673%
Residual activity (%) (FES^WT; log[inhibitor] (M) = -6.52288): 3.912%
Residual activity (%) (FES^WT; log[inhibitor] (M) = -7): 25.313%
Residual activity (%) (FES^WT; log[inhibitor] (M) = -7.52288): 69.4661%
Residual activity (%) (FES^WT; log[inhibitor] (M) = -8): 80.7219%
Residual activity (%) (FES^WT; log[inhibitor] (M) = -8.52288): 93.5112%
Residual activity (%) (FES^WT; log[inhibitor] (M) = -9): 92.1668%
Residual activity (%) (FES^WT; log[inhibitor] (M) = -9.52288): 93.0906%
Residual activity (%) (FES^WT; log[inhibitor] (M) = -10): 84.5762%
Residual activity (%) (FES^WT; log[inhibitor] (M) = -10.5229): 85.1733%
Residual activity (%) (FES^WT; log[inhibitor] (M) = -11): 101.85%

COc1ccc2c(c1)CC[C@@H]1[C@@H]2CC[C@]2(C)[C@@H](NCCCCCCN3C(=O)C=CC3=O)CC[C@@H]12 [Compound U-73122, U-73122]
Phagocytic index ([1]; Figure 7i, replicates): 64.8265 and 82.4025 and 81.0921 and 67.7147 and 64.5235
